Reference: patent US5068334A, “Pharmaceutical compositions containing quinolin-2,5-diones, new quinolin-2,5-diones and processes for the preparation thereof” (Karl Thomae GmbH, priority 1988, dated 1991)
Where two headings read alike, the source gives them in different places.

Tests used:
[1] = test system: pain of inflammation in rats; assay: effect on the pain of inflammation in rats (RANDALL and SELITTO); type: in vivo, rat; details: sc, male rats, oesophageal tube, 1% methylcellulose, after subcutaneous yeast
Protocol: 1. The effect on the pain of inflammation in rats was tested using the method of RANDALL and SELITTO (Arch. int. Pharmacodyn. 111, 409 (1957)). The test substances were administered to male rats weighing between 100 and 130 g as a trituration in 1% methylcellulose (1.0 ml/100 g of animal) 90 or 135 minutes after subcutaneous administration of yeast by oesophageal tube. From the pain threshold measured 90 or 45 minutes after administration of the various doses, the ED^50 was determined by linear regression analysis as the dosage which raised the pain threshold by 50%. The following

[2] = test system: heat-induced pain in mice; assay: effect on heat-induced pain in mice (CHEN and BECKMAN); type: in vivo; details: Mus musculus, po; male mice, oesophageal tube, 1% methylcellulose; read-out: ED^100 (dosage which doubled the reaction time)
Protocol: 2. The effect on heat-induced pain in mice was investigated using the method of CHEN and BECKMAN (Science 113, 631 (1951). Male mice with an average weight of 20 g were given the test substances as a trituration in 1% methylcellulose (0.1 ml/10 g of animal by oesophageal tube. From the lengthening of the individual reaction time observed after various doses, the ED^100 was calculated by linear regression analysis as the dosage which doubled the reaction time.

[3] = test system: mechanically induced pain; assay: effect on mechanically induced pain, tail clamp method (HAFFNER); type: in vivo; details: Mus musculus, po, 0.5 h, male mice, oesophageal tube, 1% methylcellulose, 30 minute intervals, read-out: ED^50 (percentage of animals which showed no pain-reaction)
[4] = test system: body temperature of normothermic rats; assay: effect on body temperature of normothermic rats; type: in vivo; details: Rattus norvegicus, po, oesophageal tube, 1% methylcellulose, rectal temperature, read-out: ED^-1.5° C. (dosage which lowered the body temperature by 1.5° C.)
Protocol: 4. The effect on body temperature was investigated on normothermic rats weighing between 120 and 140 g. The test substances were administered by oesophageal tube as a trituration in 1% methylcellulose (1.0 ml/100 g of animal). From the lowering of rectal temperature observed after various dosages, the ED^-1.5° C. was calculated by linear regression analysis as the dosage which lowered the body temperature by 1.5° C.

acute toxicity in mice = details: in vivo, po; mouse, both sexes, oesophageal tube, death within 14 days; read-out: LD^50 Mouse
Protocol: (§1) 5. The acute toxicity was determined in mice or rats of both sexes with an average weight of 20 g. The test substances were administered by oesophageal tube as a trituration in 1% methylcellulose (0.2 ml/10 g of animal). Wherever possible the LD50 was calculated according to LITCHFIELD and WILCOXON (J. Pharmacol. exp. Therap. 96, 99 (1949)) from the percentage of animals which died within 14 days after receiving various doses.

acute toxicity in rats = details: in vivo, po; rat, both sexes, oesophageal tube, death within 14 days
Protocol: as §1

[5] = 0.75 h, pain threshold 45 minutes after administration, read-out: ED^50 after 45 minutes (dosage which raised the pain threshold by 50%)
[6] = 1.5 h, pain threshold 90 minutes after administration, read-out: ED^50 after 90 minutes (dosage which raised the pain threshold by 50%)

**Q.** Which results are given for Cn1c2c(ccc1=O)C(=O)CCC2 [Substance A, 1-methyl-7,8-dihydro-2,5(1H,6H)-quinolinedione]?
**A.** ED50 [1, 5]: 8.7 mg/kg; ED50 [1, 6]: 8.1 mg/kg; ED100 [2]: 71 mg/kg; ED50 [3]: 80 mg/kg; ED (-1.5 degC) [4]: 29 mg/kg; LD50 at 336 h (acute toxicity in mice): 767 mg/kg; LD50 at 336 h (acute toxicity in rats): 489 mg/kg

**Q.** Which results are given for CC1CC2=C(CCCC2=O)NC1=O (stereo not drawn) [Substance B, 3-methyl-3,4,7,8-tetrahydro-2,5(1H,6H)-quinolinedione]?
**A.** ED50 [1, 5]: 37 mg/kg; ED50 [1, 6]: 39 mg/kg; ED100 [2]: 155 mg/kg; ED50 [3]: 100 mg/kg; ED (-1.5 degC) [4]: 35 mg/kg; LD50 at 336 h (acute toxicity in mice): 1220 mg/kg; LD50 at 336 h (acute toxicity in rats): 659 mg/kg

**Q.** With CN1C(=O)CCC2=C1CCCC2=O [Substance C, 1-methyl-3,4,7,8-tetrahydro-2,5(1H,6H)-quinolinedione] as the compound, how does the ED50 [1, 5] read?
**A.** 15 mg/kg

**Q.** And the ED50 [1, 6]?
**A.** 21 mg/kg

**Q.** And the ED100 [2]?
**A.** 99 mg/kg

**Q.** And the ED50 [3]?
**A.** 129 mg/kg

**Q.** What about the ED (-1.5 degC) [4] of the same compound?
**A.** 26 mg/kg

**Q.** And the LD50 at 336 h (acute toxicity in mice)?
**A.** 985 mg/kg

**Q.** What about the LD50 at 336 h (acute toxicity in rats) of the same compound?
**A.** 748 mg/kg

**Q.** Which results are given for Cc1cc(=O)[nH]c2c1C(=O)CCC2 [Substance D, 4-methyl-7,8-dihydro-2,5(1H,6H)-quinolinedione]?
**A.** ED50 [1, 5]: 21 mg/kg; ED50 [1, 6]: 34 mg/kg; ED100 [2]: 98 mg/kg; ED50 [3]: 129 mg/kg; ED (-1.5 degC) [4]: 25 mg/kg; LD50 at 336 h (acute toxicity in rats): 1370 mg/kg

**Q.** Which ED50 [1, 5] does the source give for Cc1cc2c([nH]c1=O)CCCC2=O [Substance E, 3-methyl-7,8-dihydro-2,5(1H,6H)-quinolinedione] here?
**A.** 31 mg/kg

**Q.** And the ED50 [1, 6]?
**A.** 36 mg/kg

**Q.** And the ED100 [2]?
**A.** 135 mg/kg

**Q.** What about the ED50 [3] of the same compound?
**A.** 102 mg/kg

**Q.** What about the ED (-1.5 degC) [4] of the same compound?
**A.** 34 mg/kg

**Q.** What about the LD50 at 336 h (acute toxicity in mice) of the same compound?
**A.** 825 mg/kg

**Q.** With Cc1cc2c(n(C)c1=O)CCCC2=O [Substance F, 1,3-dimethyl-7,8-dihydro-2,5(1H,6H)-quinolinedione] as the compound, how does the ED50 [1, 5] read?
**A.** 12.5 mg/kg

**Q.** What about the ED50 [1, 6] of the same compound?
**A.** 12.1 mg/kg

**Q.** And the ED100 [2]?
**A.** 109 mg/kg

**Q.** And the ED50 [3]?
**A.** 86 mg/kg

**Q.** What about the ED (-1.5 degC) [4] of the same compound?
**A.** 36 mg/kg

**Q.** And the LD50 at 336 h (acute toxicity in mice)?
**A.** 296 mg/kg

**Q.** What about the LD50 at 336 h (acute toxicity in rats) of the same compound?
**A.** 396 mg/kg

**Q.** Which results are given for CCn1c2c(c(C)cc1=O)C(=O)CCC2 [Substance G, 1-ethyl-4-methyl-7,8-dihydro-2,5(1H,6H)-quinolinedione]?
**A.** ED50 [1, 5]: 5.1 mg/kg; ED50 [1, 6]: 5.9 mg/kg; ED100 [2]: 59 mg/kg; ED50 [3]: 26 mg/kg; ED (-1.5 degC) [4]: 11 mg/kg

**Q.** Which ED50 [1, 6] does the source give for CCCCn1c2c(c(C)cc1=O)C(=O)CCC2 [Substance H, 1-n-butyl-4-methyl-7,8-dihydro-2,5(1H,6H)-quinolinedione] here?
**A.** 19.1 mg/kg

**Q.** What about the ED100 [2] of the same compound?
**A.** 101 mg/kg

**Q.** What about the ED50 [3] of the same compound?
**A.** 50 mg/kg

**Q.** And the ED (-1.5 degC) [4]?
**A.** 36 mg/kg

**Q.** Which results are given for CCN1C(=O)CCC2=C1CCCC2=O [Substance I, 1-ethyl-3,4,7,8-tetrahydro-2,5(1H,6H)-quinolinedione]?
**A.** ED50 [1, 5]: 13 mg/kg; ED50 [1, 6]: 16 mg/kg; ED100 [2]: 70 mg/kg; ED50 [3]: 55 mg/kg; ED (-1.5 degC) [4]: 22 mg/kg
